Source: patent publication US12257352B2, “Compositions and methods for delivery of biomacromolecule agents” (The Regents of the University of Michigan, priority 2016, dated 2025)
Peptide text beside a SMILES is read from it. * marks the point of attachment. FITC = O=C1OC2(c3ccc(O)cc3Oc3cc(O)ccc32)c2ccc(NC(=S)*)cc21

Test: Lymph node draining of antigen peptide and Cho-CpG (IVIS)
Assay type: in vivo, C57BL/6 mice
Conditions: 31 nmol FITC-tagged Ag subcutaneously at tail base, after 1 day
Description: Female C57BL/6 mice of age 6-8 weeks were purchased from Harlan Laboratories. […] 24 hours after injection, mice were euthanized by carbon dioxide inhalation and axillary lymph nodes and inguinal lymph nodes were harvested and imaged with IVIS optical imaging system (Caliper Lifesciences).
After 24 h, inguinal lymph nodes were harvested, and FITC or Cy5 fluorescence signal was measured with IVIS optical imaging system (Caliper Life Sciences).

- FITC signal in inguinal dLNs: minimal FITC signal in inguinal dLNs
Structure (SMILES): CC[C@H](C)[C@H](NC(=O)[C@H](CO)NC(=O)[C@H](CO)NC(=O)[C@H](CO)NC(=O)[C@@H](N)CS)C(=O)N[C@H](C(=O)N[C@@H](CC(N)=O)C(=O)N[C@@H](Cc1ccccc1)C(=O)N[C@@H](CCC(=O)O)C(=O)N[C@@H](CCCCNC(=S)Nc1ccc2c(c1)C(=O)OC21c2ccc(O)cc2Oc2cc(O)ccc21)C(=O)N[C@@H](CC(C)C)C(=O)O)[C@@H](C)CC [free CSS-SIINFEK(FITC)L] (H-CSSSIINFEK(FITC)L-OH)
